# Experimental data as given in patent publication US8318947B2, “Comestible compositions comprising high potency savory flavorants, and processes for producing them” (Senomyx, Inc., priority 2006, dated 2012).
# Molecular target: T1, hT1R1/hT1R3 umami receptor expressed in an HEK293 cell line (Homo sapiens, UniProt Q7RTX0+Q7RTX1)
# T1 construct: expressed in transfected cells; host or cells: HEK293 cell line derivative, clone 1-17, expression induced with mifepristone
# T1 sequence (Q7RTX1 21-841): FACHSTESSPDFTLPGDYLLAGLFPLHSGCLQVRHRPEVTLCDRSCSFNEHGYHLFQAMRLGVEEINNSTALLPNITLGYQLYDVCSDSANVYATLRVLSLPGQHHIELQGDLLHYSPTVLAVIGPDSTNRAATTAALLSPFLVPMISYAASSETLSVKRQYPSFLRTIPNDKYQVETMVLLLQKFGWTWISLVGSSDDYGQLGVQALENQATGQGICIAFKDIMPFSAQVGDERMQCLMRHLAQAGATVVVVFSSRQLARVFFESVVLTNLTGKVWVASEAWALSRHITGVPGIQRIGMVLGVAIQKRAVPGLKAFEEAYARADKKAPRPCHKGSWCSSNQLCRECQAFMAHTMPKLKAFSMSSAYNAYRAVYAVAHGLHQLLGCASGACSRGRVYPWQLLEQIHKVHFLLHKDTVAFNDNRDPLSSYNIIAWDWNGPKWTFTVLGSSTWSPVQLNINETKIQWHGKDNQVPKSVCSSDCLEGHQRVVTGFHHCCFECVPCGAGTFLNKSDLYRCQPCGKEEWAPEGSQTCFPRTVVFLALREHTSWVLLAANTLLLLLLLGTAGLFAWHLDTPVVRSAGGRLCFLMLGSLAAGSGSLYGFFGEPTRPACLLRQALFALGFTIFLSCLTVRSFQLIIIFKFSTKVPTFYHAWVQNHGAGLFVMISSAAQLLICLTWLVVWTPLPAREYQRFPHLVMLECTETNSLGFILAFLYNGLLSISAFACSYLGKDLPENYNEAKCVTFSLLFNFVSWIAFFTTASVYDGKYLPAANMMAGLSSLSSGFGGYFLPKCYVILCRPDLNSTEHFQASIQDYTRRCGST
# T1 sequence (Q7RTX0 21-852): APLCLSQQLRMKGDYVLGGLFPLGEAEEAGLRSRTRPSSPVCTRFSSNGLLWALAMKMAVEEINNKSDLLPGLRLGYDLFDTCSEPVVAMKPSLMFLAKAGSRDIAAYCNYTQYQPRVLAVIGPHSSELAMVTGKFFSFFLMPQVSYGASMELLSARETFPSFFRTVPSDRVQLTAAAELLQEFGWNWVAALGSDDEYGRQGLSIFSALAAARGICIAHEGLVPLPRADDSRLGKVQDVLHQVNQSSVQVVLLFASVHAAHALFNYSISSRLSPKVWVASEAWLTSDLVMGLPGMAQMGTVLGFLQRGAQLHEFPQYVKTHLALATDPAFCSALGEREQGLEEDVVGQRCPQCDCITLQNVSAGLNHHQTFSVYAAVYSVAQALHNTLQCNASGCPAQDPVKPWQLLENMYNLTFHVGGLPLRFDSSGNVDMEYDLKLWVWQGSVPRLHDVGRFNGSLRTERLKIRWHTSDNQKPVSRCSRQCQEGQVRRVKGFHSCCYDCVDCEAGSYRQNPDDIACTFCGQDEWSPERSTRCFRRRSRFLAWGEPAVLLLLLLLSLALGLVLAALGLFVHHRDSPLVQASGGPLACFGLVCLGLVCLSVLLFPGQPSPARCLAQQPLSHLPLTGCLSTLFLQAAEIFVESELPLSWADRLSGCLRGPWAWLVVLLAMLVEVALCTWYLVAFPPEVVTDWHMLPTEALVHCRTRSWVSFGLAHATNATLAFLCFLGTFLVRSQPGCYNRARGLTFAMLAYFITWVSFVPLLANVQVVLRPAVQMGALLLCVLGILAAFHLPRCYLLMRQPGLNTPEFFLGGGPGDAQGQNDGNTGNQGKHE
# Assay: Umami taste enhancement assay (EC50 ratio vs. MSG)
# Assay type: cell-based
# Description: In umami taste enhancement activity assay experiments, which produce an “EC50 ratio” measurement of how effectively the amide compounds of the invention enhance the savory flavorant (typically MSG) already in a test solution. A series of measurements of the dose response is run in solutions comprising MSG alone, then a second dose response is run with MSG in combination with predetermined amounts of a candidate compound of Formula (I) at the same time.
# In this assay, increasing concentrations of monosodium glutamate (ranging from 12 μM to 81 mM) were presented, in duplicates, in the presence or absence of a fixed concentration of the test compound. Typical compound concentrations tested were 30 μM, 10 μM, 3 μM, 1 μM, 0.3 μM, 0.1 μM and 0.03 μM. The relative efficacy of compounds of […] at enhancing the receptor was determined by calculating the magnitude of a shift in the EC50 for monosodium glutamate. Enhancement was defined as a ratio (EC50R) corresponding to the EC50 of monosodium glutamate, determined in the absence of the test compound, divided by the EC50 of monosodium glutamate, determined in the presence of the test compound.
# Stated alternatively, “EC50 ratio” as compared to MSG is calculated based on the following definitions:
# EC50 Ratio vs. MSG=EC50 (MSG)/EC50 (MSG+[Compound]) wherein “[compound]” refers to the concentration of the compound of Formula (I) used to elicit (or enhance or potentiate) the MSG dose response.
# It should be noted that the EC50 ratio measured can depend somewhat on the concentration of the compound itself. Preferred savory enhancers would have a high EC50 Ratio vs. MSG at a low concentration of the compound used.
EC50 ratio (enhancement of the effectiveness of monosodium glutamate) (compound present at 0.03 μM),EC50 ratio (enhancement of the effectiveness of monosodium glutamate) (compound present at 0.3 μM),SMILES
6.92,,"CCCC(CCC)NC(=O)c1ccc2c(c1)OCO2 [Example 1, N-(heptan-4-yl)benzo[d][1,3]dioxole-5-carboxamide]"
,6.51,"COc1ccc(CNC(=O)C(=O)NCCc2ccccn2)c(OC)c1 [Example 24, N-(2,4-Dimethoxy-benzyl)-N′-(2-pyridin-2-yl-ethyl)-oxalamide]"
